In patent US11279733B2, “Peptide antibiotics” (priority 2017, dated 2022):
≈ marks a conversion by molar mass, not a printed value. Like-named read-outs stand apart in the source and are kept apart here. Positions of bridges follow the written chain, without caps; N, C: chain ends. Non-standard residues stand in square brackets, D forms with d. Residues, ends and D or L forms follow the SMILES beside them. *: point of attachment. Ala(benzothiazol-2-yl) = N[C@@H](Cc1nc2ccccc2s1)C(=O)O; Decanoyl(3R-OH) = CCCCCCC[C@@H](O)CC(=O)*; dIgl = N[C@@H](C(=O)O)C1Cc2ccccc2C1; Igl = N[C@H](C(=O)O)C1Cc2ccccc2C1; 4Pal = N[C@@H](Cc1ccncc1)C(=O)O; dChg = N[C@@H](C(=O)O)C1CCCCC1; X4 = CCCCCOc1ccc(C(=O)*)cc1; dDab = NCC[C@@H](N)C(=O)O; dDap = NC[C@@H](N)C(=O)O; Dab = NCC[C@H](N)C(=O)O

Key:
[1] = test system: E. coli ATCC 25922; settings: ATCC 25922
Summary of the method: (§1)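 Mid-log cultures grown in Mueller Hinton broth at 37° C were tested by 2-fold broth microdilution at 5×10^5 CFU/mL final. Compounds were dissolved in water and tested over a final range of 32 to 0.015 μg/mL.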

[2] = test system: P. aeruginosa GN_105, PmxR; settings: GN 105, PmxR
Summary of the method: as §1

[3] = test system: K. pneumoniae GN_106, PmxR; settings: GN 106, PmxR
Summary of the method: as §1

[4] = test system: P. aeruginosa GN_043, PmxR
Summary of the method: as §1

[5] = test system: K. pneumoniae ATCC BAA-2146, NDM-1 pos; settings: ATCC BAA-2146
Summary of the method: as §1

[6] = test system: K. pneumoniae GN_102 PmxR; settings: GN 102 PmxR
Summary of the method: as §1

[7] = test system: K. pneumoniae ATCC 13883; settings: ATCC 13883
Summary of the method: as §1

[8] = test system: A. baumannii GN_093 PmxR; settings: GN 093 PmxR
Summary of the method: as §1

[9] = test system: A. baumannii ATCC 19606; settings: ATCC 19606
Summary of the method: as §1

[10] = test system: S. aureus ATCC 25923, MSSA; settings: ATCC 25923
Summary of the method: as §1

[11] = test system: P. aeruginosa ATCC 27853; settings: ATCC 27853
Summary of the method: as §1

[12] = test system: K. pneumoniae ATCC 700603, MDR; settings: ATCC 700603
Summary of the method: as §1

[13] = in vitro; settings: human
Summary of the method: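 Cells (4000/well, pre-attached 24 h) then received 5 μM resazurin for 2 h, with fluorescence measured at ex 560/em 590.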

| SMILES | MIC E. coli ATCC 25922 [1] | MIC P. aeruginosa GN_105, PmxR [2] | MIC K. pneumoniae GN_106, PmxR [3] | MIC P. aeruginosa GN_043, PmxR ([4]; polymyxin-resistant) | MIC K. pneumoniae ATCC BAA-2146, NDM-1 pos [5] | MIC K. pneumoniae GN_102 PmxR [6] | MIC K. pneumoniae ATCC 13883 [7] | MIC A. baumannii GN_093 PmxR [8] | MIC A. baumannii ATCC 19606 [9] | MIC S. aureus ATCC 25923, MSSA [10] | MIC P. aeruginosa ATCC 27853 [11] | MIC K. pneumoniae ATCC 700603, MDR [12] | CC50 at 24 h [13] | also measured |
| --- | --- | --- | --- | --- | --- | --- | --- | --- | --- | --- | --- | --- | --- | --- |
| CCCCCCC[C@@H](O)CC(=O)N[C@H](CCN)C(=O)N[C@H]1CCNC(=O)[C@H](Cc2nc3ccccc3s2)NC(=O)[C@H](CCN)NC(=O)[C@H](CCN)NC(=O)[C@H](CC(C)C)NC(=O)[C@@H](Cc2ccccc2)NC(=O)[C@H](CCN)NC1=O [compound 8910, 3(R)OH-nC9CO-D-Dab-cyc[L-Dab-L-Dab-D-Phe-L-Leu-L-Dab-L-Dab-L-Ala(Bth)]] ({Decanoyl(3R-OH)}-[dDab][Dab][Dab][dF]L[Dab][Dab][Ala(benzothiazol-2-yl)]; lactam 2-C) | 2 µg/mL (≈ 1.76 µM) | 2 µg/mL (≈ 1.76 µM) | 4 µg/mL (≈ 3.52 µM) | 4 µg/mL (≈ 3.52 µM) | 4 µg/mL (≈ 3.52 µM) | 8 µg/mL (≈ 7.05 µM) | 4 µg/mL (≈ 3.52 µM) | 4 µg/mL (≈ 3.52 µM) | 8 µg/mL (≈ 7.05 µM) | 4 µg/mL (≈ 3.52 µM) | 2 µg/mL (≈ 1.76 µM) | 4 µg/mL (≈ 3.52 µM) | 47 µM |  |
| CCCCCCC[C@@H](O)CC(=O)N[C@H](CN)C(=O)N[C@H]1CCNC(=O)[C@H](Cc2c[nH]c3ccccc23)NC(=O)[C@H](CCN)NC(=O)[C@H](CCN)NC(=O)[C@H](C2Cc3ccccc3C2)NC(=O)[C@@H](C2Cc3ccccc3C2)NC(=O)[C@H](CCN)NC1=O [compound 8897, 3(R)OH-nC9CO-D-Dap-cyc[L-Dab-L-Dab-D-indanylgly-L-indanylgly-L-Dab-L-Dab-L-Trp]] ({Decanoyl(3R-OH)}-[dDap][Dab][Dab][dIgl][Igl][Dab][Dab]W; lactam 2-C) | 2 µg/mL (≈ 1.68 µM) | 2 µg/mL (≈ 1.68 µM) | 4 µg/mL (≈ 3.36 µM) | 2 µg/mL (≈ 1.68 µM) | 4 µg/mL (≈ 3.36 µM) | 4 µg/mL (≈ 3.36 µM) | 4 µg/mL (≈ 3.36 µM) | 4 µg/mL (≈ 3.36 µM) | 4 µg/mL (≈ 3.36 µM) | 2 µg/mL (≈ 1.68 µM) | 4 µg/mL (≈ 3.36 µM) | 4 µg/mL (≈ 3.36 µM) | 27 µM |  |
| CCCCCCC[C@@H](O)CC(=O)N[C@H](CCN)C(=O)N[C@H]1CCNC(=O)[C@H](Cc2c[nH]c3ccccc23)NC(=O)[C@H](CCN)NC(=O)[C@H](CCN)NC(=O)[C@H](CC(C)C)NC(=O)[C@@H](C2CCCCC2)NC(=O)[C@H](CCN)NC1=O [compound 8899, 3(R)OH-nC9CO-D-Dab-cyc[L-Dab-L-Dab-D-Chg-L-Leu-L-Dab-L-Dab-L-Trp]] ({Decanoyl(3R-OH)}-[dDab][Dab][Dab][dChg]L[Dab][Dab]W; lactam 2-C) | 4 µg/mL (≈ 3.61 µM) | 2 µg/mL (≈ 1.8 µM) | 16 µg/mL (≈ 14.4 µM) | 4 µg/mL (≈ 3.61 µM) | 4 µg/mL (≈ 3.61 µM) | 8 µg/mL (≈ 7.21 µM) | 8 µg/mL (≈ 7.21 µM) | 16 µg/mL (≈ 14.4 µM) | 16 µg/mL (≈ 14.4 µM) | 8 µg/mL (≈ 7.21 µM) | 4 µg/mL (≈ 3.61 µM) | 4 µg/mL (≈ 3.61 µM) | 64 µM |  |
| CCCCCCC[C@@H](O)CC(=O)N[C@H](CCN)C(=O)N[C@H]1CCNC(=O)N(CC(C)C)NC(=O)[C@H](CCN)NC(=O)[C@H](CCN)NC(=O)[C@H](CC(C)C)NC(=O)[C@@H](Cc2ccccc2)NC(=O)[C@@H](CCN)NC1=O [compound 9416, 3(R)OH-nC9CO-D-Dab-cyc[L-Dab-L-Dab-D-Phe-L-Leu-L-Dab-L-Dab-(aza-Leu)]] | 16 µg/mL (≈ 15.3 µM) |  |  |  | 16 µg/mL (≈ 15.3 µM) |  | 16 µg/mL (≈ 15.3 µM) |  | >32 µg/mL | 32 µg/mL (≈ 30.6 µM) | 4 µg/mL (≈ 3.83 µM) | 16 µg/mL (≈ 15.3 µM) | > 300 µM | MIC P. aeruginosa PA9704, PmxR [2]: >32 µg/mL; MIC K. pneumoniae Cl 183-16357-20352, PmxR [3]: >32 µg/mL; MIC, P. aeruginosa FADDI-PA070, PmxR ([4]; strain name as in Table 11): >32 µg/mL; MIC K. pneumoniae Cl Koprana 10065 0661:1 PmxR [6]: >32 µg/mL; MIC A. baumannii Cl Ptyela 10073 4512:2, PmxR [8]: >32 µg/mL |
| CCCCCOc1ccc(C(=O)N[C@H](CCN)C(=O)N[C@H]2CCNC(=O)[C@H](CC(C)C)NC(=O)[C@H](CCN)NC(=O)[C@H](CCN)NC(=O)[C@H](Cc3ccccc3)NC(=O)[C@@H](CC(C)C)NC(=O)[C@H](CCN)NC2=O)cc1 [compound 6520, 4-(pentyloxy)benzoic acid-D-Dab-cyc[L-Dab-L-Dab-D-Leu-L-Phe-L-Dab-L-Dab-L-Leu]] (X4-[dDab][Dab][Dab][dL]F[Dab][Dab]L; lactam 2-C) | 2 µg/mL (≈ 1.88 µM) | 4 µg/mL (≈ 3.76 µM) | >32 µg/mL |  | 8 µg/mL (≈ 7.52 µM) | 32 µg/mL (≈ 30.1 µM) | 32 µg/mL (≈ 30.1 µM) | 32 µg/mL (≈ 30.1 µM) | >32 µg/mL | 32 µg/mL (≈ 30.1 µM) | 4 µg/mL (≈ 3.76 µM) | 8 µg/mL (≈ 7.52 µM) | > 300 µM | MIC P. aeruginosa GN_043, PmxR ([4]; P. aeruginosa GN_043, PmxR): 4 µg/mL (≈ 3.76 µM) |
| CCCCCCC[C@@H](O)CC(=O)N[C@H](CCN)C(=O)N[C@H]1CCNC(=O)[C@H](Cc2ccncc2)NC(=O)[C@H](CCN)NC(=O)[C@H](CCN)NC(=O)[C@H](CC(C)C)NC(=O)[C@@H](Cc2ccccc2)NC(=O)[C@H](CCN)NC1=O [compound 8906, 3(R)OH-nC9CO-D-Dab-cyc[L-Dab-L-Dab-D-Phe-L-Leu-L-Dab-L-Dab-L-Ala(4py)]] ({Decanoyl(3R-OH)}-[dDab][Dab][Dab][dF]L[Dab][Dab][4Pal]; lactam 2-C) | 4 µg/mL (≈ 3.71 µM) | 2 µg/mL (≈ 1.85 µM) | 16 µg/mL (≈ 14.8 µM) | 0.5 µg/mL (≈ 0.463 µM) | 8 µg/mL (≈ 7.41 µM) | 16 µg/mL (≈ 14.8 µM) | 4 µg/mL (≈ 3.71 µM) | >32 µg/mL | >32 µg/mL | >32 µg/mL | 1 µg/mL (≈ 0.926 µM) | 4 µg/mL (≈ 3.71 µM) | > 300 µM |  |
| CC(=O)N[C@H](CN)C(=O)N[C@H]1CCNC(=O)[C@H](CC(C)C)NC(=O)[C@H](CCN)NC(=O)[C@H](CCN)NC(=O)[C@H](CC(C)C)NC(=O)[C@@H](Cc2ccccc2)NC(=O)[C@H](CCN)NC1=O [compound 8980, Ac-D-Dap-cyc[L-Dab-L-Dab-D-Phe-L-Leu-L-Dab-L-Dab-L-Leu]] (Ac-[dDap][Dab][Dab][dF]L[Dab][Dab]L; lactam 2-C) |  | >32 µg/mL | >32 µg/mL |  |  | >32 µg/mL |  | >32 µg/mL |  |  |  |  | > 300 µM | MIC, E. coli ATCC 25922 [1]: >32 µg/mL; MIC P. aeruginosa GN_043, PmxR ([4]; Table 6, polymyxin-resistant): >32 µg/mL; MIC, K. pneumoniae ATCC BAA-2146, NDM-1 pos [5]: 32 µg/mL (≈ 35.5 µM); MIC, K. pneumoniae ATCC 13883 [7]: >32 µg/mL; MIC, A. baumannii ATCC 19606 [9]: >32 µg/mL; MIC, S. aureus ATCC 25923, MSSA [10]: >32 µg/mL; MIC, P. aeruginosa ATCC 27853 [11]: 4 µg/mL (≈ 4.43 µM); MIC, K. pneumoniae ATCC 700603, MDR [12]: 32 µg/mL (≈ 35.5 µM) |
